Measured values: patent US10143686B2, “Oxidosqualene cyclase as a protein target for anticancer therapeutics” (The Curators of the University of Missouri, priority 2010, dated 2018)
Counter-ions that a name gives are not always drawn. Like-named read-outs stand apart in the source and are kept apart here.

Columns and labels:
Assay type in all cases: cell-based
[1] = system: NCI-H23 lung cancer cells; test: SRB cell viability assay, NCI-H23; details: Homo sapiens
Experimental: (§1) The effect of OSC inhibition was evaluated in additional cancer cell lines as well. Cancer cell lines may be purchased from ATCC (Manassas, Va.). The SRB assay has been employed for determination of the inhibitory effects of RO 48-8071 on growth of different cancer cells. Cells were seeded into 96-well plates and incubated overnight at 37° C. with 5% CO2. The culture medium was removed after 24 hours, and cells were washed with DMEM/F12 medium and then treated with various concentrations of RO 48-8071 in 5% FBS culture medium for 24 and 48 hours. Surviving or adherent cells were fixed in situ by withdrawing the growth medium, adding 100 μl PBS and 100 μl 50% trichloroacetic acid and then incubating at 4° C. for one hour. Cells were washed with ice-cold water, dried at room temperature (RT), and then stained with 50 μl 4% SRB for eight minutes at RT. Unbound dye was removed by washing with cold 1% acetic acid for five times, and plates were dried at RT. Bound stain was solubilized with 150 μl 10 mM Tris buffer and absorbance of samples was read at 520 nm with a SpecTRA MAX 190 microplate reader (Molecular Devices, Sunnyvale, Calif.). Six wells were used for each concentration, and each experiment was performed two to three times.
Effect of RO 48-8071 on lung cancer cell line H23 viability. […] The culture mediums employed 10% FBS RPMI-1640 for culture and 5% FBS RPMI-1640 for treatment.

[2] = system: SK-OV-3 ovarian cancer cells; test: SRB cell viability assay, SK-OV-3; details: Homo sapiens, SK-OV-3, Ovary
Experimental: as §1
Effect of RO 48-8071 on ovarian cancer cell line SK-OV-3 viability. […]

[3] = system: MDA-231 breast cancer cells; test: SRB cell viability assay, MDA-231; details: Homo sapiens, MDA-MB-231, MDA-231, Breast (triple negative)
Experimental: as §1
Effect of RO 48-8071 on estrogen, progesterone, and HER-2/neu receptors negative breast cancer cell line MDA-231 and BT-20 viability. […]

[4] = system: LNCaP prostate cancer cells; test: SRB cell viability assay, LNCaP; details: Homo sapiens
Experimental: as §1
Effect of RO 48-8071 prostate cancer cell line LNCaP viability. […] The culture mediums employed 20% FBS RPMI-1640 for culture and 10% FBS RPMI-1640 for treatment.

[5] = system: ZR-75 breast cancer cells; test: SRB cell viability assay, ZR-75; details: ZR75, ZR-75, Breast (ER+ PR+)
Experimental: as §1
Effect of RO 48-8071 on estrogen, progesterone, and HER-2/neu receptors positive breast cancer cell line HCC-1428 and ZR-75 viability. […]

DLD-1 colon cancer cells = test: SRB cell viability assay, DLD-1; details: Homo sapiens
Experimental: as §1
Effect of RO 48-8071 on colon cancer cell line DLD-1 viability. […] The culture mediums employed 10% FBS RPMI-1640 for culture and 5% FBS RPMI-1640 for treatment.

[6] = system: DU145 prostate cancer cells; test: SRB cell viability assay, DU145; details: Homo sapiens
Experimental: as §1
Effect of RO 48-8071 on prostate cancer cell line DU145 viability. […] The culture mediums employed 10% FBS EMEM for culture and 5% FBS EMEM for treatment.

[7] = 24 hours, read-out: IC50 (μM) (24 hours)
[8] = 48 hours, read-out: IC50 (μM) (48 hours)

Work on `C=CCN(C)CCCCCCOc1ccc(C(=O)c2ccc(Br)cc2)c(F)c1` [Ro 48-8071, 4′-[6-(Allylmethylamino)hexyloxy]-4-bromo-2′-fluorobenzophenone fumarate] yielded an IC50 [1, 7] of 14.2 ± 1.28 µM, an IC50 [1, 8] of 10.3 ± 0.303 µM and an IC50 [2, 7] of 18.3 ± 0.639 µM. It also gave an IC50 [2, 8] of 12.7 ± 0.521 µM, an IC50 [3, 7] of 15 ± 0.482 µM and an IC50 [3, 8] of 10.7 ± 0.276 µM. It also gave an IC50 [4, 7] of 18.1 ± 3.22 µM, an IC50 [4, 8] of 11.8 ± 0.431 µM and an IC50 [5, 7] of 11 ± 0.289 µM. The IC50 [5, 8] was 7.63 ± 0.304 µM, the IC50 (DLD-1 colon cancer cells; [7]) was 11.5 ± 0.243 µM and the IC50 (DLD-1 colon cancer cells; [8]) was 6.92 ± 0.41 µM. For the same molecule, the IC50 ([6]; DU-145, 24 hours, read-out: IC50 (μM) (24 hours)) was 13.5 ± 0.895 µM and the IC50 ([6]; DU-145, 48 hours, read-out: IC50 (μM) (48 hours)) was 8.61 ± 0.455 µM.
